Data reported in the NIST ThermoML archive (doi:10.1021/je101361u).
Numbers after ± are expanded uncertainties.

Assay: xn = mol fraction of the nth substance listed
Conditions: 101.3 kPa, Liquid

COCCOC [1,2-dimethoxyethane] + ClCCCl
mass density [kg/m3]
Conditions	283.15 K	288.15 K	293.15 K	298.15 K	303.15 K	308.15 K
x2 = 0.0251	885.37 ± 0.49	879.96 ± 0.49	874.49 ± 0.5	868.99 ± 0.51	863.45 ± 0.51	857.87 ± 0.52
x2 = 0.05	893.06 ± 0.48	887.61 ± 0.48	882.11 ± 0.49	876.59 ± 0.49	871.02 ± 0.5	865.42 ± 0.51
x2 = 0.0501	893.14 ± 0.48	887.69 ± 0.48	882.19 ± 0.49	876.66 ± 0.49	871.08 ± 0.5	865.47 ± 0.51
x2 = 0.075	900.9 ± 0.46	895.43 ± 0.47	889.9 ± 0.47	884.34 ± 0.48	878.74 ± 0.49	873.1 ± 0.49
x2 = 0.1	908.78 ± 0.45	903.28 ± 0.45	897.71 ± 0.46	892.12 ± 0.47	886.49 ± 0.47	880.82 ± 0.48
x2 = 0.1552	926.63 ± 0.42	921.05 ± 0.42	915.42 ± 0.43	909.76 ± 0.44	904.05 ± 0.44	898.32 ± 0.45
x2 = 0.2001	941.4 ± 0.39	935.76 ± 0.4	930.07 ± 0.41	924.35 ± 0.41	918.59 ± 0.42	912.79 ± 0.42
x2 = 0.2501	958.23 ± 0.37	952.53 ± 0.37	946.77 ± 0.38	940.98 ± 0.39	935.15 ± 0.39	929.28 ± 0.4
x2 = 0.3002	975.46 ± 0.34	969.68 ± 0.35	963.86 ± 0.35	957.99 ± 0.36	952.09 ± 0.37	946.16 ± 0.37
x2 = 0.35	992.96 ± 0.32	987.11 ± 0.32	981.21 ± 0.33	975.28 ± 0.34	969.3 ± 0.34	963.29 ± 0.35
x2 = 0.4001	1010.98 ± 0.32	1005.05 ± 0.31	999.08 ± 0.31	993.07 ± 0.31	987.02 ± 0.32	980.93 ± 0.32
x2 = 0.45	1029.37 ± 0.34	1023.36 ± 0.33	1017.3 ± 0.32	1011.21 ± 0.32	1005.09 ± 0.31	998.92 ± 0.3
x2 = 0.5	1048.22 ± 0.36	1042.13 ± 0.35	1035.99 ± 0.34	1029.82 ± 0.33	1023.61 ± 0.33	–
x2 = 0.5001	1048.32 ± 0.36	1042.23 ± 0.35	1036.09 ± 0.34	1029.91 ± 0.33	1023.7 ± 0.33	–
x2 = 0.55	1067.59 ± 0.38	1061.41 ± 0.37	1055.19 ± 0.36	1048.93 ± 0.36	1042.63 ± 0.35	–
x2 = 0.6001	1087.41 ± 0.4	1081.15 ± 0.39	1074.83 ± 0.39	1068.48 ± 0.38	1062.09 ± 0.37	–
x2 = 0.65	1107.73 ± 0.43	1101.37 ± 0.42	1094.96 ± 0.41	1088.51 ± 0.4	1082.03 ± 0.39	–
x2 = 0.7	1128.6 ± 0.45	1122.14 ± 0.44	1115.63 ± 0.43	1109.08 ± 0.42	1102.5 ± 0.41	–
x2 = 0.75	1150.14 ± 0.48	1143.57 ± 0.47	1136.95 ± 0.46	1130.3 ± 0.45	1123.6 ± 0.44	–
x2 = 0.8	1172.13 ± 0.51	1165.45 ± 0.5	1158.71 ± 0.49	1151.94 ± 0.48	1145.15 ± 0.47	–
x2 = 0.85	1195.03 ± 0.54	1188.23 ± 0.53	1181.37 ± 0.52	1174.49 ± 0.51	1167.57 ± 0.5	–
x2 = 0.9	1218.48 ± 0.57	1211.55 ± 0.55	1204.56 ± 0.54	1197.56 ± 0.53	1190.51 ± 0.52	–
x2 = 0.925	1230.36 ± 0.58	1223.37 ± 0.57	1216.32 ± 0.56	1209.25 ± 0.55	1202.14 ± 0.54	–
x2 = 0.975	1254.94 ± 0.61	1247.8 ± 0.6	1240.62 ± 0.59	1233.42 ± 0.58	1226.18 ± 0.57	–
